This is an account of results in paper PMC3682423 (The FEBS journal, 2011).

Test [1] deals with isolated HIV RNase H domain (p15) (Human immunodeficiency virus type 1 group M subtype B, UniProt P03366). In words: Quenching of intrinsic fluorescence of the isolated RNase H domain. The test is classed as binding, HIV-1.
Test [2] has as its target wt HIV-1 RT-associated RNase H activity (Human immunodeficiency virus type 1 group M subtype B, UniProt P03366). Briefly: biochemical. Format: biochemical.
The target of another test is Y181C RT RDDP (Human immunodeficiency virus type 1 group M subtype B, UniProt P03366, Y780C). Briefly: biochemical. Also on record: species or system HIV-1.
The target of the next test is K103N RT RNase H (Human immunodeficiency virus type 1 group M subtype B, UniProt P03366, K702N). Briefly: biochemical. Further details: species or system HIV-1.
The next test has as its target K103N RT RDDP (Human immunodeficiency virus type 1 group M subtype B, UniProt P03366, K702N). In words: biochemical. Further details: species or system HIV-1.
The next test has as its target Y181C RT RNase H (Human immunodeficiency virus type 1 group M subtype B, UniProt P03366, Y780C). Briefly: RNase H polymerase-independent cleavage assay, Y181C RT. Format: biochemical, HIV-1.
Test [3] has as its target wt HIV-1 RT-associated RDDP activity (Human immunodeficiency virus type 1 group M subtype B, UniProt P03366). Briefly: biochemical.

As to `O=C1Cc2ccccc2C(=O)N1O` [2-hydroxy-1,2,3,4-tetrahydroisoquinoline-1,3-dione], the IC50 (in general, the concentration needed to halve the response being measured) in test [1] was 52 µM.
Turning to `O=C1c2ccccc2C(=O)c2c1ccc(O)c2O` [Alizarine, alizarine], the IC50 in test [2] is > 100 µM; at Y181C RT RDDP it was > 100 µM; against K103N RT RNase H it was > 100 µM; on K103N RT RDDP it was 68 ± 5 µM; at Y181C RT RNase H it was > 100 µM; in test [3] it was 79 ± 8 µM. In test [2] (wt RT), the “inhibition of wt RT-associated RNase H function (in words)” value is “inactive”.
